Experimental data as given in patent EP0117302A2, “Phenothiazine derivatives” (THE WELLCOME FOUNDATION LIMITED, priority 1982, dated 1984).
Where two headings read alike, the source gives them in different places.

What was measured:
[1] = system: histamine; assay: In vitro antihistamine activity: histamine concentration-response curves on isolated ileum longitudinal muscle, Schild plot; format: cell-based, guinea-pigs; conditions: guinea-pig ileum longitudinal muscle, one hour incubation with test compound, antagonism of histamine; for pA2: 60 min; for Kb: Cavia porcellus, 1 h, read-out: pA2 (converted)
Experimental: A. In vitro antihistamine activity: The longitudinal muscle was isolated from the intact ileum of guinea-pigs (Hartley, male 250-400g) and placed in an organ bath under 300 mg tension. […] Following washing, the tissues were incubated for one hour with the test compound and then a second histamine concentration-response curve was run. […] Regression of Log (dr-1) on Log [B], where dr is an equiactive response in the presence and absence of antagonist and [B] is the molar concentration of antagonist, allowed an estimate of pA2, i.e. the negative log of the concentration of antagonist which shifts the control histamine concentration response curve 2X to the right.

[2] = system: compound 48/80; assay: Inhibition of compound 48/80 induced anaphylactoid reaction; format: in vivo, Wister rats; conditions: Rattus norvegicus, rats, compound administered 2 hrs. prior to test, read-out: ED50 (dose providing 50% protection against death induced by compound 48/80)
Experimental: Non-fasted, Wister rats (180-300g).were dosed with the test compound, (i.p. or p.o.) 2 hours before compound 48/80 challenge. One hour prior to challenge, 5 mg/kg i.p. of propranolol was administered. The anaphylactoid inducing agent, compound 48/80, was given intravenously at 2 mg/kg and the animals were monitored for symptoms of respiratory distress.
Data were analyzed by Probit determinations. the response was quantitated by determining the dose of test compound which protected 50% of the animals from death at a given time point.
Agents which block the effects of compound 48/80 are commonly classified as inhibitors of anaphylactic mediators or inhibitors of the release of anaphylic mediators.

[3] = system: histamine; assay: In vivo antihistaminic activity: protection against histamine aerosol challenge; conditions: Cavia porcellus, po, guinea pigs
Experimental: B. In vivo Antihistaminic Activity: Guinea pigs (Hartley, male, 300-350 g) were fasted for 20 hours and then dosed p.o. or i.p. with the test compound. One hour after dosing, on an individual basis, the guinea pigs were placed in a clear plastic chamber which was saturated and continually gassed with 0.25% histamine from an aerosol nebulizer. The guinea pigs were monitored for signs of histamine anaphylaxis (e.g. cough, sneeze, strong abdominal movements, cyanoses or loss of righting). […] ED50's for protection against histamine were calculated by probit analysis. […] Complete protection was defined as no histamine symptoms for six minutes in the aerosol chamber (approximately 10X the collapse time of the control animals).

[4] = Pharmacokinetic studies: relative distribution in brain and plasma; format: in vivo; conditions: rodents, compared with promethazine
[5] = Acute toxicity (approximate LD50); conditions: rat, in vivo, rats

Molecule	ED50 ([2]; ip)	Kb [1]	other results
4 (or 1)-(2-carboxyethyl)-10-(2-dimethylaminopropyl)-phenothiazine [Compound I]			pA2 [1]: 7.2
10-(2-dimethylaminopropyl)phenothiazine-4(or 1)-carboxylic acid [Compound G]			pA2 [1]: 6.8
COc1ccc(CCN2CCC(Nc3nc4ccccc4n3Cc3ccc(F)cc3)CC2)cc1 [Astemizole, reference compound]	1.08 mg/kg		
CC(CN1c2ccccc2Sc2ccc(/C=C/C(=O)O)cc21)N(C)C (stereo not drawn) [Compound A, trans-β-[10-(2-Dimethylaminopropyl)phenothiazin-2-yl]acryiic acid]	2.64 mg/kg	6.31 nM	ED50 ([3]; 0.25% histamine aerosol, 1 hour post-dosing, read-out: ED50): 1.7 mg/kg; ED50 ([3]; 24 hours protection, read-out: ED50 for 24 hours protection): 11 mg/kg; brain penetration [4]: do not readily penetrate the brains of rodents
CC(CN1c2ccccc2Sc2ccc(CC(=O)O)cc21)N(C)C (centres unmarked) [Compound B, 2-[10-(2-Dimethylaminopropyl)phenothiazin-2-yl]acetic acid]	0.89 mg/kg	0.398 nM	ED50 ([3]; 0.25% histamine aerosol, 4 hours post dosing, read-out: ED50): 0.3 mg/kg; ED50 ([2]; po): 1.2 mg/kg; LD50 ([5]; ip): ~210 mg/kg; LD50 ([5]; po): > 500 mg/kg; brain penetration [4]: do not readily penetrate the brains of rodents
CC(C(=O)O)c1ccc2c(c1)N(CC(C)N(C)C)c1ccccc1S2 (centres unmarked) [Compound C, 2-[10-(2-Dimethylaminopropyi)phenothiazin-2-yl]propionic acid]	1.43 mg/kg	7.94 nM	
CC(CN1c2ccccc2Sc2cc(C(=O)O)ccc21)N(C)C (centres unmarked) [Compound D, 10-(2-dimethylaminopropyI)phenothiazine-3-carboxylic acid]		631 nM	
CC(CN1c2ccccc2Sc2cc(/C=C/C(=O)O)ccc21)N(C)C (centres unmarked) [Compound E, E-3-(2-carboxyvinyl)-10-(2-dimethylaminopropyl)-phenothiazine]	3.11 mg/kg	631 nM	
CC(CN1c2ccccc2Sc2cc(CCC(=O)O)ccc21)N(C)C (centres unmarked) [Compound F, 3-(2-carboxyethyl)-10-(2-dimethylaminopropyl)phenothiazine]		6310 nM	
CCOC(=O)Cc1ccc2c(c1)N(CC(C)N(C)C)c1ccc(Cl)cc1S2 (centres unmarked) [Compound J]		1 nM	
CC(CN1c2ccc(Cl)cc2Sc2ccc(CC(=O)O)cc21)N(C)C (centres unmarked) [Compound K, [7-Chloro-10-(2-dimethylaminopropyl)-2-phenothiazinyl]acetic acid]		1.58 nM	
CCOC(=O)Cc1ccc2c(c1)N(CCN(C)C)c1ccc(C)cc1S2 [Compound L, Ethyl [10-(2-dimethylaminoethyl)-7-methyl-2-phenothiazinyl]acetate]		0.794 nM	
Cc1ccc2c(c1)Sc1ccc(CC(=O)O)cc1N2CCN(C)C [Compound M, [10-(2-Dimethylaminoethyl)-7-methyl-2-phenothiazinyl]acetic acid]		1.26 nM	
CCOC(=O)C(C)(C)c1ccc2c(c1)N(CC(C)N(C)C)c1ccccc1S2 (centres unmarked) [Compound O, Ethyl 2-[10-(2-dimethylaminopropyl)-2-phenothiazinyl]-2-methylpropionate]		3.16 nM	
CC(CN1c2ccccc2Sc2ccc(C(C)(C)C(=O)O)cc21)N(C)C (centres unmarked) [Compound P]		1.58 nM	
CN(C)CCCN1c2ccccc2Sc2ccc(C(C)(C)C(=O)O)cc21 [Compound Q, 2-[10(3-dimethylaminopropyl)-2-phenothiazinyl]-2-methylpropionic acid]		2 nM	
CC(CN1c2ccccc2Sc2ccc(C(=O)O)cc21)N(C)C (centres unmarked) [Compound S, 10-(2-Dimethylaminopropyl)phenothiazin-2-yl-carboxylic acid]		1 nM	
CN1CCC(=C2c3ccccc3CC(=O)c3sccc32)CC1 [Ketotifen, reference compound]	0.87 mg/kg		
E-4 (or 1)-(2-carboxyvinyl)-10-(2-dimethylaminopropyl)phenothiazine [Compound H]			pA2 [1]: 7.8
[10-(2-diethylaminoethyl)-7-fluoro-2-phenothiaznyl]acetic acid [Compound N]			pA2 [1]: 8.6
